According to US9457044B2, “Methods and compositions for wound healing” (CoDa Therapeutics, Inc., priority 2006, dated 2016):

Key:
Format in all cases: in vivo, mice
MPO-positive neutrophils = assay: Neutrophil recruitment into wound site (anti-MPO staining); settings: day 1 and 2, versus control
Method: (§1) Male, 8 week old, ICR mice were used in the following experiments. All the mice were kept under specific pathogen-free conditions in an environmentally controlled clean room at University College London and all the experiments were carried out under UK Home Office regulations. Mice were anaesthetized by halothane inhalation. Four full-thickness excisional wounds of 6 mm diameter were made on the shaved back on either side of the dorsal midline with a 6 mm biopsy punch (Kai Industries). To each pair of wounds a single topical application of 50 μl of 1 μM Cx43 as ODN (SEQ. ID No. 2) (Sigma-Genosys) in 30% Pluronic F-127 gel (Sigma-Aldrich), chilled on ice, was made to one wound, and an identical application of 1 μM sense control sODNs was made to the other. […] R. and Becker, D. L. (2003). Targeting connexin 43 expression accelerates the rate of wound repair. Curr Biol 13, 1697-703). Each wound region was digitally photographed at the indicated time intervals, and the areas of the wounds were calculated. All wound areas were expressed as percentages of the initial wound areas. […]
A treatment-blinded observer counted MPO-positive neutrophils and F4/80-positive macrophages in the wound bed (defined as the area surrounded by unwounded skin, fascia, regenerated epidermis, and eschar) in 3 random high-power fields of 0.332 mm^2. […]

Ccl2 mRNA = assay: Real-Time PCR of Ccl2 at wound sites; settings: day 2; P<0.05 versus control sODN
Method: as §1
Gene specific primers and probe were obtained as TaqMan® Gene Expression Assays (Applied Biosystems) for Cx43, Ccl2, Co1α1, TNFα and TGFβ1. […] Each sample was analyzed in duplicate. […]

TGF-β1 = assay: Immunostaining for TGF-β1 at wound sites; settings: 2 days
Method: as §1, with “areas. In some series of experiments, wounds and their surrounding area, including the scab and epithelial margins, were harvested with an 8 mm biopsy punch (Kai Industries) at the indicated time intervals after mice were killed with an overdose of chloroform. A minimum of eight mice were used for each time point examined.” for “areas.”

apoptotic cells = assay: TUNEL staining of granulation tissue; settings: 5, 7 and 10 days after wounding
Method: as §1
Wound tissues were fixed in 4% formaldehyde buffered with PBS, and embedded in paraffin and sectioned. […] TUNEL stained section were imaged and positive cells were counted in the granulation tissue in three random fields, in the two sides and center of each wound (each field was 0.332 mm2).

myofibroblasts = assay: Anti-α smooth muscle actin staining of myofibroblasts in granulation tissue
Method: Male, 8 week old, ICR mice were used in the following experiments. All the mice were kept under specific pathogen-free conditions in an environmentally controlled clean room at University College London and all the experiments were carried out under UK Home Office regulations. Mice were anaesthetized by halothane inhalation. Four full-thickness excisional wounds of 6 mm diameter were made on the shaved back on either side of the dorsal midline with a 6 mm biopsy punch (Kai Industries). To each pair of wounds a single topical application of 50 μl of 1 μM Cx43 as ODN (SEQ. ID No. 2) (Sigma-Genosys) in 30% Pluronic F-127 gel (Sigma-Aldrich), chilled on ice, was made to one wound, and an identical application of 1 μM sense control sODNs was made to the other. […] R. and Becker, D. L. (2003). Targeting connexin 43 expression accelerates the rate of wound repair. Curr Biol 13, 1697-703). Each wound region was digitally photographed at the indicated time intervals, and the areas of the wounds were calculated. All wound areas were expressed as percentages of the initial wound areas. In some series of experiments, wounds and their surrounding area, including the scab and epithelial margins, were harvested with an 8 mm biopsy punch (Kai Industries) at the indicated time intervals after mice were killed with an overdose of chloroform. A minimum of eight mice were used for each time point examined.
Immunostaining for connexin 43, blood vessels or a smooth muscle actin was carried out on cryostat sections of wounds. Sections were fixed in acetone at 4° C. for 5 minutes prior to blocking for 45 minutes. Incubation in primary antibody was for one hour at the following dilutions: rabbit anti-Cx43 (Sigma) 1:3,000; isoLectin B_FITC 1:2000; von Willebrand Factor (rabbit Dako) 1:400; anti-α smooth muscle actin (Sigma) 1:400 at room temperature. […]
A treatment-blinded observer counted MPO-positive neutrophils and F4/80-positive macrophages in the wound bed (defined as the area surrounded by unwounded skin, fascia, regenerated epidermis, and eschar) in 3 random high-power fields of 0.332 mm^2. BrdU-positive cells in the wound margin and the nascent epidermis regions of each immunohistochemically stained section were counted as described previously and expressed per […] of epidermis (Mori, R., Kondo, T., Nishie, T., Ohshima, T. and Asano, M. (2004). Impairment of skin wound healing in beta-1,4-galactosyltransferase-deficient mice with reduced leukocyte recruitment. Am J Pathol 164, 1303-14). Number of fibroblast like cells (phalloidin-positive cells with spindle-shape body) at the wound margin were counted in high-power fields also (each field was 0.332 mm^2). […] Images were made binary at a standard threshold and positive pixels were counted using Image J (NIH Image).

Sequence: GTAATTGCGGCAGGAGGAATTGTTTCTGTC (antisense GTAATTGCGGCAGGAGGAATTGTTTCTGTC; in Pluronic F-127 gel, further chemistry not given here) [Cx43 asODN]
- neutrophil numbers at wound site (MPO-positive neutrophils): significantly reduced
- expression level of Ccl2 mRNA (Ccl2 mRNA): significantly reduced
- TGF-β1 positive elongated fibroblast-like cells at the dermal margins of the wound (TGF-β1): an additional TGF-β1 positive cell type could be seen in large numbers
- TGF-β1 staining in the epidermis versus control wound epidermis (TGF-β1): much more strongly
- numbers of TUNEL positive cells, control versus treated (apoptotic cells): no significant differences
- SMA staining at the edges of the granulation tissue (myofibroblasts; 10 days after wounding, P=0.000002 versus control): most of the staining for SMA had gone
- SMA staining (myofibroblasts; day 5, no staining in control wounds): could be detected at the edges of the granulation tissue
- SMA staining at the edges of the granulation tissue, quantified (myofibroblasts; day 7, P=0.004 versus control): significantly higher
- advance over controls in maturation of granulation tissue (myofibroblasts; mouse, in vivo): 2 to 3 days
